This assay has as its system BDF1 mice, L1210 leukemia sc, survival T/C. Description: NCI In Vivo Anticancer Drug Screen. Data for tumor model L1210 Leukemia (subcutaneous) in B6D2F1 (BDF1) mice. The following applies: higher = longer survival. Put shortly:
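Antitumor activity is assessed in mice with transplanted tumors by comparing the treated group (T) with the vehicle control group (C).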

Here are results for 6 molecules from PubChem BioAssay AID250 (DTP/NCI, 2004).

Molecules are shown by their SMILES. “And” between values parts separate entries of the source, which are not always exact repeats. Equal entries are not always repeated. Toxic doses and inconclusive results are not listed.

In the case of `CCN(CC)CCNC(=O)N(Cc1ccccc1)c1ccccc1`, the T/C by setting is: (endpoint: median survival time, dose: 22.0 mg/kg/injection, schedule: Q01DX Z (sc), vehicle: methylcellulose (MC)) 100 % of control; (endpoint: median survival time, dose: 37.0 mg/kg/injection, schedule: Q01DX Z (sc), vehicle: methylcellulose (MC)) 100 % of control; (endpoint: median survival time, dose: 62.0 mg/kg/injection, schedule: Q01DX Z (sc), vehicle: methylcellulose (MC)) 100 % of control; (endpoint: median survival time, dose: 104.0 mg/kg/injection, schedule: Q01DX Z (sc), vehicle: methylcellulose (MC)) 100 % of control; (endpoint: median survival time, dose: 173.0 mg/kg/injection, schedule: Q01DX Z (sc), vehicle: methylcellulose (MC)) 100 % of control; (endpoint: median survival time, dose: 288.0 mg/kg/injection, schedule: Q01DX Z (sc), vehicle: methylcellulose (MC)) 100 % of control. Moreover, the T/C is, setting by setting: (endpoint: median survival time, dose: 480.0 mg/kg/injection, schedule: Q01DX Z (sc), vehicle: methylcellulose (MC)) 100 % of control; (endpoint: median survival time, dose: 800.0 mg/kg/injection, schedule: Q01DX Z (sc), vehicle: methylcellulose (MC)) 100 % of control.

`CN(C)/N=N/c1nc[nH]c1C(N)=O`: the T/C reads like this: (endpoint: mean survival time, dose: 39.0 mg/kg/injection, schedule: Q01DX009 (sc), vehicle: steriod suspending solution) 117 % of control; (endpoint: mean survival time, dose: 65.0 mg/kg/injection, schedule: Q01DX009 (sc), vehicle: steriod suspending solution) 115 % of control; (endpoint: mean survival time, dose: 300.0 mg/kg/injection, schedule: Q01DX009 (sc), vehicle: steriod suspending solution) 158 % of control; (endpoint: median survival time, dose: 39.0 mg/kg/injection, schedule: Q01DX009 (sc), vehicle: steriod suspending solution) 110 % of control and 116 % of control; (endpoint: median survival time, dose: 39.0 mg/kg/injection, schedule: Q01DX013 (sc), vehicle: steriod suspending solution) 110 % of control and 111 % of control; (endpoint: median survival time, dose: 39.0 mg/kg/injection, schedule: Q01DX Z (sc), vehicle: steriod suspending solution) 110 % of control and 116 % of control. The T/C is, setting by setting: (endpoint: median survival time, dose: 65.0 mg/kg/injection, schedule: Q01DX009 (sc), vehicle: other) 111 % of control; (endpoint: median survival time, dose: 65.0 mg/kg/injection, schedule: Q01DX009 (sc), vehicle: steriod suspending solution) 110 % of control and 118 % of control and 121 % of control; (endpoint: median survival time, dose: 65.0 mg/kg/injection, schedule: Q01DX013 (sc), vehicle: other) 113 % of control; (endpoint: median survival time, dose: 65.0 mg/kg/injection, schedule: Q01DX013 (sc), vehicle: steriod suspending solution) 111 % of control and 113 % of control and 115 % of control; (endpoint: median survival time, dose: 65.0 mg/kg/injection, schedule: Q01DX017 (oral), vehicle: steriod suspending solution) 124 % of control; (endpoint: median survival time, dose: 65.0 mg/kg/injection, schedule: Q01DX Z (sc), vehicle: steriod suspending solution) 121 % of control and 122 % of control. For the same molecule, the T/C was 113 % of control (endpoint: median survival time, dose: 65.0 mg/kg/injection, schedule: Q ##X015 (oral), vehicle: steriod suspending solution); 116 % of control (endpoint: median survival time, dose: 65.0 mg/kg/injection, schedule: Q## X015 (oral), vehicle: steriod suspending solution); 108 % of control (endpoint: median survival time, dose: 108.0 mg/kg/injection, schedule: Q01DX009 (sc), vehicle: other); 115 % of control and 117 % of control and 122 % of control (endpoint: median survival time, dose: 108.0 mg/kg/injection, schedule: Q01DX013 (sc), vehicle: steriod suspending solution); 115 % of control (endpoint: median survival time, dose: 108.0 mg/kg/injection, schedule: Q01DX Z (sc), vehicle: steriod suspending solution); 117 % of control (endpoint: median survival time, dose: 108.0 mg/kg/injection, schedule: Q ##X015 (oral), vehicle: steriod suspending solution). Besides, the T/C is, setting by setting: (endpoint: median survival time, dose: 108.0 mg/kg/injection, schedule: Q## X015 (oral), vehicle: steriod suspending solution) 116 % of control; (endpoint: median survival time, dose: 180.0 mg/kg/injection, schedule: Q01DX009 (sc), vehicle: other) 115 % of control; (endpoint: median survival time, dose: 300.0 mg/kg/injection, schedule: Q01DX Z (sc), vehicle: steriod suspending solution) 166 % of control; (endpoint: median survival time, dose: 500.0 mg/kg/injection, schedule: Q01DX013 (sc), vehicle: other) 166 % of control; (endpoint: median survival time, dose: 500.0 mg/kg/injection, schedule: Q01DX013 (sc), vehicle: steriod suspending solution) 166 % of control; (endpoint: median survival time, dose: 500.0 mg/kg/injection, schedule: Q01DX017 (oral), vehicle: steriod suspending solution) 150 % of control. For the same molecule, the T/C is 150 % of control (endpoint: median survival time, dose: 500.0 mg/kg/injection, schedule: Q## X015 (oral), vehicle: steriod suspending solution); 158 % of control (endpoint: median survival time, dose: 833.0 mg/kg/injection, schedule: Q ##X015 (oral), vehicle: steriod suspending solution); 166 % of control (endpoint: median survival time, dose: 833.0 mg/kg/injection, schedule: Q## X015 (oral), vehicle: steriod suspending solution).

In the case of `CN(C)N=Nc1ccc(CCCC(=O)NN)cc1`, the T/C is, setting by setting: (endpoint: median survival time, dose: 23.0 mg/kg/injection, schedule: Q01DX Z (sc), vehicle: carboxymethylcellulose (CMC)) 109 % of control; (endpoint: median survival time, dose: 39.0 mg/kg/injection, schedule: Q01DX Z (sc), vehicle: carboxymethylcellulose (CMC)) 118 % of control; (endpoint: median survival time, dose: 65.0 mg/kg/injection, schedule: Q01DX Z (sc), vehicle: carboxymethylcellulose (CMC)) 109 % of control; (endpoint: median survival time, dose: 108.0 mg/kg/injection, schedule: Q01DX Z (sc), vehicle: carboxymethylcellulose (CMC)) 109 % of control; (endpoint: median survival time, dose: 180.0 mg/kg/injection, schedule: Q01DX Z (sc), vehicle: carboxymethylcellulose (CMC)) 113 % of control.

As for `ClCCn1c2ccccc2c2ccccc21`, the T/C by setting is: (endpoint: median survival time, dose: 5.0 mg/kg/injection, schedule: Q01DX Z (sc), vehicle: methylcellulose (MC)) 100 % of control; (endpoint: median survival time, dose: 8.4 mg/kg/injection, schedule: Q01DX Z (sc), vehicle: methylcellulose (MC)) 100 % of control; (endpoint: median survival time, dose: 14.0 mg/kg/injection, schedule: Q01DX Z (sc), vehicle: methylcellulose (MC)) 100 % of control; (endpoint: median survival time, dose: 23.0 mg/kg/injection, schedule: Q01DX Z (sc), vehicle: methylcellulose (MC)) 100 % of control; (endpoint: median survival time, dose: 39.0 mg/kg/injection, schedule: Q01DX Z (sc), vehicle: methylcellulose (MC)) 100 % of control; (endpoint: median survival time, dose: 65.0 mg/kg/injection, schedule: Q01DX Z (sc), vehicle: methylcellulose (MC)) 100 % of control. Moreover, under “endpoint: median survival time, dose: 108.0 mg/kg/injection, schedule: Q01DX Z (sc), vehicle: methylcellulose (MC)”, the T/C is 100 % of control.

Turning to `O[C@H](CN1CC1)[C@@H](O)CN1CC1`, the T/C (endpoint: median survival time, dose: 0.14 mg/kg/injection, schedule: Q01DX Z (sc), vehicle: saline) was 100 % of control; the T/C (endpoint: median survival time, dose: 0.22 mg/kg/injection, schedule: Q01DX Z (sc), vehicle: saline) is 111 % of control; the T/C (endpoint: median survival time, dose: 0.23 mg/kg/injection, schedule: Q01DX Z (sc), vehicle: saline) is 111 % of control; the T/C (endpoint: median survival time, dose: 0.6 mg/kg/injection, schedule: Q01DX Z (sc), vehicle: saline) was 177 % of control; the T/C (endpoint: median survival time, dose: 0.65 mg/kg/injection, schedule: Q01DX Z (sc), vehicle: saline) is 183 % of control; the T/C (endpoint: median survival time, dose: 1.0 mg/kg/injection, schedule: Q01DX Z (sc), vehicle: saline) is 172 % of control. Moreover, the T/C by setting is: (endpoint: median survival time, dose: 1.08 mg/kg/injection, schedule: Q01DX Z (sc), vehicle: saline) 155 % of control; (endpoint: median survival time, dose: 2.8 mg/kg/injection, schedule: Q01DX Z (sc), vehicle: saline) 122 % of control.

Turning to `CC1CCC(NC(=O)N(CCCl)N=O)CC1` (stereo not given), the T/C is, setting by setting: (endpoint: median survival time, dose: 5.0 mg/kg/injection, schedule: Q03HX008 (sc), vehicle: saline) 322 % of control and 333 % of control; (endpoint: median survival time, dose: 6.25 mg/kg/injection, schedule: Q04DX008 (sc), vehicle: saline) 681 % of control and 690 % of control; (endpoint: median survival time, dose: 12.5 mg/kg/injection, schedule: Q01DX001 (sc), vehicle: saline) 120 % of control; (endpoint: median survival time, dose: 12.5 mg/kg/injection, schedule: Q04DX008 (sc), vehicle: saline) 370 % of control and 403 % of control; (endpoint: median survival time, dose: 25.0 mg/kg/injection, schedule: Q04DX008 (sc), vehicle: saline) 119 % of control and 120 % of control; (endpoint: median survival time, dose: 50.0 mg/kg/injection, schedule: Q04DX001 (sc), vehicle: saline) 215 % of control and 257 % of control. Moreover, the T/C runs as follows: (endpoint: median survival time, dose: 50.0 mg/kg/injection, schedule: Q04DX008 (sc), vehicle: saline) 104 % of control and 105 % of control; (endpoint: median survival time, dose: 100.0 mg/kg/injection, schedule: Q04DX001 (sc), vehicle: saline) 230 % of control; (endpoint: median survival time, dose: 200.0 mg/kg/injection, schedule: Q04DX001 (sc), vehicle: saline) 120 % of control and 121 % of control; (endpoint: median survival time, dose: 400.0 mg/kg/injection, schedule: Q04DX001 (sc), vehicle: saline) 150 % of control and 151 % of control.
